Measurements taken from patent US20250230193A1, “CYCLIC COMPOUND HAVING SELECTIVE KRAS INHIBITORY EFFECT ON HRAS AND NRAS” (CHUGAI SEIYAKU KABUSHIKI KAISHA, priority 2022, published 2025).
*1 amine or outer side, *2 acyl side, *3 side chain or, on linkers, in order; H or OH if unused. Where a SMILES comes first, the peptide text is derived from it. Bridges are numbered along the chain shown (N, C = ends). [ ]: non-standard residue; d: D form. The star is where a group is joined. hPhe(3-Cl-4-CF3) = N[C@@H](CCc1ccc(C(F)(F)F)c(Cl)c1)C(=O)O; X18 = C=CCCN([C@@H](Cc1ccc(C(F)(F)F)cc1)C(=O)[*:2])[*:1]; NMeGly(cPent) = CN[C@H](C(=O)O)C1CCCC1; NMeD = CN[C@@H](CC(=O)O)C(=O)O; NMeL = CN[C@@H](CC(C)C)C(=O)O; Morpholide = C1CN(*)CCO1; Ac5c = NC1(C(=O)O)CCCC1; Sar = CNCC(=O)O

Columns and labels:
[1] = biological target: GDP-bound NRAS wild-type protein (Homo sapiens, UniProt P01111); assay: Binding to NRAS by surface plasmon resonance (SPR), Single Cycle Kinetics
GDP-bound NRAS wild-type protein, sequence (P01111 whole entry): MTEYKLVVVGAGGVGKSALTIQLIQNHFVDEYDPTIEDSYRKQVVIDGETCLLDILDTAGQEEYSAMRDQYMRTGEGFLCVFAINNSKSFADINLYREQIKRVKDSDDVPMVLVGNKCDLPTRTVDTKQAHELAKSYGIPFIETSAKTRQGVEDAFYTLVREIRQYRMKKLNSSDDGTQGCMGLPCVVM

[2] = biological target: GDP-bound HRAS wild-type protein (Homo sapiens, UniProt P01112); assay: Binding to HRAS by surface plasmon resonance (SPR), Single Cycle Kinetics
GDP-bound HRAS wild-type protein, sequence (P01112 whole entry): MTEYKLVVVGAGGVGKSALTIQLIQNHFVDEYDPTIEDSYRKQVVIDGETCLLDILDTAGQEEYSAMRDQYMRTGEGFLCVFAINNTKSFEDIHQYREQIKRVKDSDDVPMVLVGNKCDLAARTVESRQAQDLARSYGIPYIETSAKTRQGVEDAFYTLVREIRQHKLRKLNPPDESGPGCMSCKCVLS

[3] = KD ratio NRAS/KRAS, SPR, GDP-bound wild-type proteins
[4] = KD ratio HRAS/KRAS, SPR, GDP-bound wild-type proteins
[5] = KD ratio, GDP-bound NRAS wild-type vs GDP-bound KRAS wild-type, SPR
[6] = KD ratio, GDP-bound HRAS wild-type vs GDP-bound KRAS wild-type, SPR

`C#CC[C@H]1C(=O)N[C@@H]([C@@H](C)CC)C(=O)N(C)CC(=O)N(C)[C@H]2C/C=C\CCN(C2=O)[C@@H](Cc2ccc(C(F)(F)F)cc2)C(=O)N(C)CC(=O)N[C@@H](CCc2ccc(C(F)(F)F)c(OC)c2)C(=O)N2CC[C@H]2C(=O)NC2(CCC2)C(=O)N(C)[C@@H](C2CCCC2)C(=O)N(C)[C@H](C(=O)N(C)C)CC(=O)N1C` [PP2911] was tested, and the “NRAS/KRAS (ratio of KD value with respect to GDP-bound NRAS wild-type protein to KD value with respect to KRAS)” value ([1]; KD ratio NRAS/KRAS, class symbols) was “A (a compound having 10 or more and less than 20 is denoted as A)” and the “HRAS/KRAS (ratio of KD value with respect to GDP-bound HRAS wild-type protein to KD value with respect to KRAS)” value ([2]; KD ratio HRAS/KRAS, class symbols) was “B (a compound having 3 or more and less than 10 is denoted as B)”.

In the case of `CC[C@H](C)[C@@H]1NC(=O)[C@@H]2CCCc3ccc(cc3)C[C@@H](C(=O)N(C)CC(=O)N[C@@H](CCc3ccc(C(F)(F)F)c(OC)c3)C(=O)N3CC4(CC4)C[C@H]3C(=O)NC3(CC(C)(C)C3)C(=O)N(C)[C@@H](C3CCCC3)C(=O)N(C)[C@H](C(=O)N(C)CC)CC(=O)N2C)N2CC/C=C\C[C@@H](C2=O)N(C)C(=O)CN(C)C1=O` [PP3087], the “NRAS/KRAS (ratio of KD value with respect to GDP-bound NRAS wild-type protein to KD value with respect to KRAS)” value [1, 3] is reported as “A (a compound having 10 or more and less than 20 is denoted as A)” and the “HRAS/KRAS (ratio of KD value with respect to GDP-bound HRAS wild-type protein to KD value with respect to KRAS)” value [2, 4] is reported as “B (a compound having 3 or more and less than 10 is denoted as B)”.

`C=CCCN1C(=O)CN(C)C(=O)CN(C)C(=O)[C@H]([C@@H](C)CC)NC(=O)[C@H](CC(C)C)N(C)C(=O)C[C@@H](C(=O)N2CCOCC2)N(C)C(=O)[C@H](C2CCCC2)N(C)C(=O)C2(CCCC2)NC(=O)[C@@H]2CCCN2C(=O)[C@H](CCc2ccc(C(F)(F)F)c(Cl)c2)NC(=O)CN(C)C(=O)[C@@H]1Cc1ccc(C(F)(F)F)cc1` [PP0129] ([NMeL]I[Sar][Sar][X18][Sar][hPhe(3-Cl-4-CF3)]P[Ac5c][NMeGly(cPent)][NMeD]-Morpholide; lactam N-11) was tested, and the “NRAS/KRAS (ratio of KD for GDP-bound NRAS wild-type to KD for KRAS)” value ([1]; KD ratio NRAS/KRAS, SPR) was “B (a compound having 3 or more and less than 10 is denoted as B)” and the “HRAS/KRAS (ratio of KD for GDP-bound HRAS wild-type to KD for KRAS)” value ([2]; KD ratio HRAS/KRAS, SPR) was “C (A compound having a KD ratio of 0.1 or more and less than 3 is denoted as C)”.

For `CC[C@H](C)[C@@H]1NC(=O)[C@H](CC)N(C)C(=O)C[C@@H](C(=O)N(C)C)N(C)C(=O)[C@H](C2CCCC2)N(C)C(=O)C2(CCC2)NC(=O)[C@@H]2C[C@@H](N3CCC(F)(F)CC3)CN2C(=O)[C@H](CCc2cc(F)c(C(F)(F)F)c(F)c2)NC(=O)CN(C)C(=O)[C@H](Cc2ccc(C(F)(F)F)cc2)N2CCCC[C@@H](C2=O)N(C)C(=O)CN(C)C1=O` [PP0656], the “NRAS/KRAS (ratio of KD value with respect to GDP-bound NRAS wild-type protein to KD value with respect to KRAS)” value ([1]; KD ratio NRAS/KRAS, SPR) was “C (A compound having a KD ratio of 0.1 or more and less than 3 is denoted as C)” and the “HRAS/KRAS (ratio of KD value with respect to GDP-bound HRAS wild-type protein to KD value with respect to KRAS)” value ([2]; KD ratio HRAS/KRAS, SPR) was “C (A compound having a KD ratio of 0.1 or more and less than 3 is denoted as C)”.

`CC[C@H](C)[C@@H]1NC(=O)[C@H](CC(C)C)N(C)C(=O)C[C@@H](C(=O)N(CC)CC)N(C)C(=O)[C@H](C2CCCC2)N(C)C(=O)C2(CCC2)NC(=O)[C@@H]2C[C@@H](C)CN2C(=O)[C@H](CCc2ccc(C(F)(F)F)c(OC)c2)NC(=O)CN(C)C(=O)[C@H](Cc2ccc(C)cc2)N2CC/C=C\C[C@@H](C2=O)N(C)C(=O)CN(C)C1=O` [PP1849] was tested, and the “NRAS/KRAS (ratio of KD value for NRAS to KD value for KRAS)” value [1, 5] was “A (a compound having 10 or more and less than 20 is denoted as A)” and the “HRAS/KRAS (ratio of KD value for HRAS to KD value for KRAS)” value [2, 6] was “A (a compound having 10 or more and less than 20 is denoted as A)”.

In the case of `CCCN1C(=O)[C@H](C2CCCC2)N(C)C(=O)C2(CCC2)NC(=O)[C@@H]2C[C@@H](OCC)CN2C(=O)[C@H](CCc2cc(F)c(C(F)(F)F)c(F)c2)NC(=O)CN(C)C(=O)[C@H](Cc2ccc(C(F)(F)F)cc2)N2CCCCC[C@@H](C2=O)N(C)C(=O)CN(C)C(=O)[C@H]([C@@H](C)CC)NC(=O)[C@H](CC(C)C)N(C)C(=O)C[C@H]1C(=O)N1CCOCC1` [PP0639], the “NRAS/KRAS (ratio of KD value with respect to GDP-bound NRAS wild-type protein to KD value with respect to KRAS)” value ([1]; KD ratio NRAS/KRAS, SPR) is reported as “B (a compound having 3 or more and less than 10 is denoted as B)” and the “HRAS/KRAS (ratio of KD value with respect to GDP-bound HRAS wild-type protein to KD value with respect to KRAS)” value ([2]; KD ratio HRAS/KRAS, SPR) is reported as “B (a compound having 3 or more and less than 10 is denoted as B)”.

For `CCO[C@@H]1C[C@H]2C(=O)NC3(CCC3)C(=O)N(C)[C@@H](C3CCCC3)C(=O)N(C)[C@H](C(=O)N(C)C)CC(=O)N(C)[C@@H](CC(C)C)C(=O)N[C@@H]([C@@H](C)CC)C(=O)N3CC[C@H]3C(=O)N(C)[C@H]3CC(C)=C(C)CN(C3=O)[C@@H](Cc3ccc(C(F)(F)F)cc3)C(=O)N(C)CC(=O)N[C@@H](CCc3cc(F)c(C(F)(F)F)c(F)c3)C(=O)N2C1` [PP1047], the “NRAS/KRAS (ratio of KD value with respect to NRAS to KD value with respect to KRAS)” value [1, 5] was “C (A compound having a KD ratio of 0.1 or more and less than 3 is denoted as C)” and the “HRAS/KRAS (ratio of KD value with respect to HRAS to KD value with respect to KRAS)” value [2, 6] was “C (A compound having a KD ratio of 0.1 or more and less than 3 is denoted as C)”.

In the case of `CCC[C@H]1C(=O)N[C@@H](C2CCCC2)C(=O)N(C)CC(=O)N(C)[C@H]2C/C=C\CCN(C2=O)[C@@H](Cc2ccc(C)cc2)C(=O)N(C)CC(=O)N[C@@H](CCc2cc(F)c(C(F)(F)F)c(F)c2)C(=O)N2C[C@H](OCC)C[C@H]2C(=O)NC2(CC(C)(C)C2)C(=O)N(C)[C@@H](CC(C)(C)C)C(=O)N(C)[C@H](C(=O)N(C)C)CC(=O)N1C` [PP2989], the “NRAS/KRAS (ratio of KD value with respect to GDP-bound NRAS wild-type protein to KD value with respect to KRAS)” value [1, 3] is reported as “AA (a compound having 20 or more is denoted as AA)” and the “HRAS/KRAS (ratio of KD value with respect to GDP-bound HRAS wild-type protein to KD value with respect to KRAS)” value [2, 4] is reported as “A (a compound having 10 or more and less than 20 is denoted as A)”.
